Experiment: Xenon light resistance test, ink of Example 18 (Table 58)
Type: physicochemical
Settings: for each glossy paper (Table 58)
Procedure: An ink of Example 18 was prepared as in Example 1 except that the compound represented by the above formula (200) was used instead of the compound represented by the above formula (101).
Ink-jet recording was performed with an ink-jet printer (Canon, Inc., Product name: PIXUS ip7230) to allow each of the inks from Example 18 and Comparative Examples 1, 2 above to be attached on the following glossy papers 1 to 4. Upon performing recording, image patterns were created so that the density can be obtained in a gradation of 6 levels: 100%, 85%, 70%, 55%, 40%, and 25% to obtain a half-tone recorded article. The resulting recorded article was used as a test piece to perform the following tests.
Glossy paper 1: Canon, Inc., Product name: Canon Photograph paper, platinum grade (PT-201)
Glossy paper 2: Seiko Epson Corporation, Product name: Photograph paper Crispia
Glossy paper 3: Brother Industries, Ltd., Product name: BP71G
Glossy paper 4: FUJIFILM Corporation, Product name: Gasai Photo-finishing Pro
When required, color measurements of a recorded image were performed using a colorimeter (Product name SpectroEye from X-rite, Inc.). Color measurements were performed under the conditions of a density standard of DIN NB, a wide viewing angle of 2 degrees, a light source of D65. […]

light resistance tests, results compared with Comparative Examples 1, 2: better results
Structure (SMILES): O=S(=O)(O)CCCOc1cc(N=Nc2ccc(Cl)c(S(=O)(=O)O)c2)c(Cl)cc1Nc1nc(Nc2cc(Cl)c(N=Nc3ccc(Cl)c(S(=O)(=O)O)c3)cc2OCCCS(=O)(=O)O)nc(N2CCN(c3nc(Nc4cc(Cl)c(N=Nc5ccc(Cl)c(S(=O)(=O)O)c5)cc4OCCCS(=O)(=O)O)nc(Nc4cc(Cl)c(N=Nc5ccc(Cl)c(S(=O)(=O)O)c5)cc4OCCCS(=O)(=O)O)n3)CC2)n1 [Example 18]
